How the values were obtained:
[1] = Substrate stability over incubation in sodium formate buffer; assay type: physicochemical; settings: 24 hour incubation at 37° C. in sodium formate buffer; read-out: recovery of the substrates (stability)
HexA [2] = target: T1, HexA (Homo sapiens, UniProt P06865); experiment: Analytical range of duplex assay, HexA activity; assay type: biochemical; settings: dried blood spots
T1 construct: using endogenous enzymes from healthy adult dried blood spots; from tissue; host or cells: dried blood spots from healthy adults/individuals (3.2 mm punches)
T1 sequence (P06865 89-529): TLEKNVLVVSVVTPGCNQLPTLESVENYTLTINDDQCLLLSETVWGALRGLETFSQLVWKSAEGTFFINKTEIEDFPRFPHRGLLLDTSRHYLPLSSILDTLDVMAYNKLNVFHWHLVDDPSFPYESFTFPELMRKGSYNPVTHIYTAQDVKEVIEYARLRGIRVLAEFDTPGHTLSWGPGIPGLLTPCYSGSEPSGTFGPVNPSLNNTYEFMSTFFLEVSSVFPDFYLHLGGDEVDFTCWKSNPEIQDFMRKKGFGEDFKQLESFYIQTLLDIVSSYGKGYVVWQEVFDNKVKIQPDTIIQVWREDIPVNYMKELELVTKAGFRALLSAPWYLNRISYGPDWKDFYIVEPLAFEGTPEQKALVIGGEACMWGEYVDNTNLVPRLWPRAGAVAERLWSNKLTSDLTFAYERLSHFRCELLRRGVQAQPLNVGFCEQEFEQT
T1 sequence (P07686 122-556 partner): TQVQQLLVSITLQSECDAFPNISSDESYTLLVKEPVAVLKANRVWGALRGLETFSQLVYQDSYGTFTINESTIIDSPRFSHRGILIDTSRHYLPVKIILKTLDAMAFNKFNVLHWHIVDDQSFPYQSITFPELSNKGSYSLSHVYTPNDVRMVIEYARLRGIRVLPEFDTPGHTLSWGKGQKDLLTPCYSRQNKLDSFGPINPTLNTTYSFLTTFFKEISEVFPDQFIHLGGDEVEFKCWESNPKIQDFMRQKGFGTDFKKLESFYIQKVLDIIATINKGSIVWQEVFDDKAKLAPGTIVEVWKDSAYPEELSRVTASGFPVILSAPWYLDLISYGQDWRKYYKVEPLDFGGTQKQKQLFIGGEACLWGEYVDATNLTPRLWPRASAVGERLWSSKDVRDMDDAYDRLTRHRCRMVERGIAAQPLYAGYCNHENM
Protocol: (§1) 3.2 mm punches were taken from dried blood samples. The punches were added into a well of a multiwell plate and in particular, a 1.0 mL deep-well 96-well plate. Following, 30 μL of the duplex assay cocktail described above was added to each well. The plate was sealed with a silicone sealing mat and shaken at 250 rpm for 4 hours at 37° C. in an orbital shaker incubator. After incubation, the enzymatic reaction was quenched by adding 100 μL of methanol: ethyl acetate (1:1) and mixed by pipetting up and down ˜10 times. Analytes were extracted by adding sodium chloride solution (0.5 M, 200 μL) and ethyl acetate (400 μL) to each well and mixed by pipetting up and down ˜10 times. The plate was centrifuged at 3000×g for 5 min at ambient temperature, then 200 μL of the upper ethyl acetate layer was transferred to a 96-well microplate. […]
(§2) Analytes were detected via a WATERS™ Xevo TQ triple-quadrupole mass spectrometer. […] The following MRM traces were monitored for quantitation: HexA enzymatic reaction product (456.5>356.1), HexA/B enzymatic reaction product (461.5>361.2), and internal standard (465.5>357.1). […]
The analytical range, as calculated by dividing the enzymatic activity in healthy individual samples over the enzymatic activity in a blank, was determined to be 82 for the HexA substrate and 3,400 for the HexA/B substrate.

HexA/B = experiment: Enzyme kinetics of HexA/B with the HexA/B substrate, endogenous enzymes from healthy adult dried blood spots, LC-MS/MS detection; assay type: biochemical; settings: read-out: Michaelis-Menten constant (Km)
Protocol: as §1, with “times.” for “times. The plate was centrifuged at 3000×g for 5 min at ambient temperature, then 200 μL of the upper ethyl acetate layer was transferred to a 96-well microplate.”
as §2
Enzyme kinetics of HexA and HexA/B were measured in relationship to the HexA substrate and HexA/B substrate, respectively, using endogenous enzymes from healthy adult dried blood spots. […]
The reaction rate for each substrate at different substrate concentrations was measured and the relationship found to be hyperbolic.

HexA [3] = target: T1, HexA; experiment: Competitive inhibition: HexA activity with the HexA substrate in presence and absence of the HexA/B substrate, dried blood spots from healthy individuals; assay type: biochemical; settings: HexA substrate in presence vs absence of HexA/B substrate
Protocol: The HexA/B substrate binds to both HexA and HexB, whereas the HexA substrate binds to only the HexA; thus, the HexA/B substrate may theoretically block the action of HexA on the HexA substrate by competitive binding (i.e. competitive inhibition). An experiment was done to test this theory where HexA enzymatic activity was measured in dried blood spots from healthy individuals using the HexA substrate in the presence and absence of the HexA/B substrate.

Row | recovery at 24 h [1] [%] | analytical range (enzymatic activity in healthy individual samples over enzymatic activity in a blank) (HexA [2]) | Km (HexA/B) [mM] | competitive inhibition of HexA enzymatic activity on the HexA substrate (HexA [3]) | Structure (SMILES)
1 | > 100 | 82 | – | – | CC(=O)NC1C(Oc2ccc(NC(=O)CCN(CCCCNC(=O)c3ccccc3)C(=O)OC(C)(C)C)cc2)OC(COS(=O)(=O)O)C(O)C1O (centres unmarked) [HexA substrate]
2 | > 100 | – | 3.06 | no competitive inhibition | [2H]c1c([2H])c([2H])c(C(=O)NCCCCN(CCC(=O)Nc2ccc(OC3OC(CO)C(O)C(O)C3NC(C)=O)cc2)C(=O)OC(C)(C)C)c([2H])c1[2H] (centres unmarked) [HexA/B substrate]

Reference: patent publication US20250250608A1, “METHODS AND COMPOSITIONS FOR ASSAYING BETA-HEXOSAMINIDASE ENZYMATIC ACTIVITY VIA MASS SPECTROMETRY” (GelbChem, LLC, priority 2024, published 2025)
